This passage reports Ki results from BindingDB's records for doi:10.1016/0960-894X(95)00340-Y (1995).

This assay concerns the target Leukotriene B4 receptor 1 (Cavia porcellus). The assay can be described thus: Binding affinity against Guinea pig membrane LTB4 Receptor.

Structures are written as SMILES. Counter-ions that a name gives are not always drawn.

What is called Ki is a measure of affinity in units of concentration, obtained from inhibition or displacement. Lower therefore signals a stronger hold on the target. Consider `CCCc1cc(CC)c(OCCCCCC(C)(C)c2nn[nH]n2)cc1O` [Sodium salt of 4-Ethyl-5-[6-methyl-6-(2H-tetrazol-5-yl)-heptyloxy]-2-propyl-phenol], for which the inhibitory constant (Ki) worked out at 14 nM.
`CCc1cc(CC)c(OCCCCCC(C)(C)c2nn[nH]n2)cc1O` [sodium 2,4-diethyl-5-[6-methyl-6-(2H-1,2,3,4-tetraazol-5-yl)heptyloxy]phenol] registered an inhibition constant Ki of 17 nM.
Compound `CCCCCCc1cc(CC)c(OCCCCCC(C)(C)c2nn[nH]n2)cc1O` [sodium 4-ethyl-2-hexyl-5-[6-methyl-6-(2H-1,2,3,4-tetraazol-5-yl)heptyloxy]phenol] had an inhibition constant (Ki) of 33 nM.
